Assay results from a melting point compilation (Tetko et al.; mined from patent text by program, amines drawn as free bases though some values may be those of a salt).

SMILES | melting point
O=C1c2ccccc2NC(c2ccc(=O)[nH]c2)N1c1ccc(F)c(C(F)(F)F)c1 (centres undefined) | 260 to 261 °C
COc1ccc(CN2CCc3cc(O)c(OC)cc3C2)cc1 | 162 to 163 °C
CC1CC(=O)NN=C1c1ccc(N=CNc2ccc(C3=NNC(=O)CC3C)cc2)cc1 (centres undefined) | 306 to 308 °C
COc1ccc(-c2cnc3[nH]cc(C#N)c3n2)cc1OC | 284 to 285 °C
CC(C)c1nc(N)oc1-c1ccc(F)c2ccccc12 | 141 °C
COc1ccc(C2C(C(=O)c3ccc(OC(F)(F)F)cc3)=C(O)C(=O)N2c2ccc(C)nn2)cc1 (centres undefined) | 279 °C
CCOC(=O)c1cn(-c2nonc2C)c2c(F)c(F)c(F)cc2c1=O | 201 to 202 °C
CCN(CC)c1cc2c(cc1C)Nc1c(cc(NC(=O)c3ccc(OC)cc3)c3ncn(-c4ccc(OC)cc4)c13)O2 | 189 to 192 °C
COc1cc(COc2nn(-c3ccccc3)cc2/C=C/C#N)ccc1OCc1nc(-c2ccco2)oc1C | 177 to 178 °C
COc1ccc2c(c1)CC(NNc1ncnc3c1ncn3C1OC(CO)C(O)C1O)CO2 (centres undefined) | 90 to 95 °C
CNC(=O)n1nc(Oc2c(Cl)cc(C(F)(F)F)cc2Cl)cc1C | 113 to 114 °C
CC(=O)c1ccccc1N(C)S(C)(=O)=O | 98 to 99 °C
COc1ccc(C(=O)Nc2c(Cl)cncc2Cl)c2c1oc1ccncc12 | > 260 °C
NC(=O)C(F)(F)C(F)(F)C(F)(F)C(F)(F)C(F)(F)C(F)(F)C(F)(F)F | 136 to 137 °C
COc1ccc(Oc2cccc(C)c2)c(NS(C)(=O)=O)c1 | 87 to 88 °C
CC(C)C(C(=O)O)c1ccc(OCCNC(=O)C2Cc3ccccc3N2S(=O)(=O)c2ccc(-c3cc(C(F)(F)F)ccc3Cl)cc2)cc1 (centres undefined) | 84 to 88 °C
CC1=CC(=O)C(N)=CC1=N | 205 °C
CC1(C)C(=O)Nc2ccc([N+](=O)[O-])cc21 | 192 to 196 °C
CCCNC(=S)c1ccc2c(c1)N(C(C)CN1CCCC1)c1ccccc1S2 (racemic) | 150 to 152 °C
O=C(O)COc1cccc(C(=O)O)c1OCC(=O)O | 195 to 197 °C
CCOC(=O)C(C)(C)Oc1ccc(-c2ccc(CCNC(=O)c3ccc(OC)c(OC)c3)cc2)cc1 | 118 °C
O=C(Nc1cccc(F)n1)c1cc(-c2ccc(O)cc2)nc2ccccc12 | 210 to 212 °C
CCc1ccc2c(c1)C=Cc1cc(C)ccc1C2c1cn(Cc2ccc(C(=O)O)o2)c(=O)[nH]c1=S (centres undefined) | 165 °C
CON(C)C(=O)CCc1nnc(-c2ccc3c(c2)CCO3)o1 | 112 to 113 °C
COC(=O)c1cncn1C1CC2CCCCC2c2ccccc21 (centres undefined) | 140 °C

SMILES | melting point
CCCCCCOc1ccc(-n2c(-c3ccc(Br)cc3)ccc2-c2ccc(Br)cc2)cc1 | 201 to 202 °C
C=Cc1cc(C2=NCCO2)ccc1OCCCCCc1cc(C)no1 | 116 to 117 °C
Cc1ccc(C(=O)NC(NC(=S)Nc2cccnc2)C(F)(F)F)cc1 (centres undefined) | 185 to 186 °C
CN(C)CCOc1c(-c2ccc(S(C)(=O)=O)cc2)cnn(-c2cccc(Cl)c2)c1=O | 110 to 113 °C
CCOC(=O)C1(Cc2ccc(OC)cc2)CCCC1 | 63.5 to 64.5 °C
COc1cnccc1CCCOc1cccnc1Oc1cccc(Br)c1 | 134 to 136 °C
N#CC1=C(N)Oc2c(ccc3cnccc23)C1c1cccc([N+](=O)[O-])c1 (centres undefined) | 239 to 243 °C
CON=C(C#N)C(=O)NC(=O)NC1CC1 | 182 °C
COc1nccnc1C1=CN2CCC1CC2 | 95 to 96 °C
CC1C(=O)N(Nc2ccccc2)C1C#C[Si](C)(C)C (centres undefined) | 136 °C
CCc1c(-c2ccc(O)cc2)c2cc(C(C)=O)c3ccc(O)c1n32 | 167 to 173 °C
Cc1cc(Cl)nc(Nc2ccccc2[N+](=O)[O-])n1 | 175 °C
CCOC(=O)c1ccc(-c2ccc(N(c3ccc(-c4ccccc4)cc3)c3ccc(-c4ccc(C(=O)OCC)cc4)cc3)cc2)cc1 | 200 to 201 °C
CC(C)(C)c1nc2cc(N3CCCC3)c(N)cc2s1 | 130 to 132 °C
N#Cc1ccc(N2C(=O)[C@H]3C(O)C(O)CN3C2=O)c2ccccc12 (some centres undefined) | 225 °C
CC(=O)Nc1cc(Br)ccc1S(C)(=O)=O | 157 to 160 °C
COC(=O)CCCCCSC1=CCCC1=O | 45 to 46.5 °C
O=C(O)c1cccc(SCc2c(O[C@H](Cn3ccnc3)c3ccccc3)ccc3c2CCCC3=O)c1 | 225 °C
NC(=O)C1=CCCc2cc(Sc3ccccc3)cc(F)c21 | 224 to 226 °C
CC(C)Cc1c2c(nn1C)c(O)nc1ccccc12 | > 280 °C
O[C@H]1CC[C@H](Nc2nccc(-c3n[nH]c4c(C(F)(F)F)cccc34)n2)CC1 | 266 to 270 °C
COc1ccc(/C(C)=C\c2ccc(C(=O)O)cc2)cc1C(C)(C)C | 182 to 184 °C
CCCCCCCCCCCCCCCCCC(=O)c1ccc(OC)c(C(=O)O)c1 | 194 to 196 °C
CSc1nncn1-c1ccc(N2C[C@H](CNC(C)=O)OC2=O)cc1F | 188 to 190 °C
CCCCCCCCOc1ccc(-c2nnc(-c3cc(Cl)ccc3Cl)o2)cc1 | 86 °C

SMILES | melting point
CCCOCCOc1ccc(-c2ccc3c(c2)C=C(C(=O)Nc2ccc(CN(C)C4CCOCC4)cc2)CCS3(=O)=O)cc1Cl | 183 to 184 °C
c1ccc(-c2nn3c(c2-c2nc4ccccc4[nH]2)CCC3)nc1 | 172 to 175 °C
OCC[C@H](O)COC(c1ccccc1)(c1ccccc1)c1ccccc1 | 68.8 to 70.9 °C
CN1CCC(c2n[nH]c3ccc([N+](=O)[O-])cc23)CC1 | 237 to 239 °C
COc1cc(C(=O)N(C(C)C)C2CCCCC2)ccc1Cn1c(C)nc2cccnc21 | 210 to 212 °C
CCNC(=O)Cn1cccc(O)c1=O | 214 to 215 °C
COC(=O)c1nc(-c2ccc(Cl)c(N(C)C)c2F)nc(N)c1C1CC1 | 156 to 158 °C
O=C1CCCC12CCn1c(cc3ccccc31)C2 (centres undefined) | 128 to 130 °C
c1ccc(-c2ccc(-c3cccs3)s2)cc1 | 116 to 118 °C
COc1cc(C)cc(OC)c1C1=NC(NC(=O)Nc2ccccc2Cl)C(=O)N(C)c2ccccc21 (centres undefined) | 260 °C
CN1OCCN(c2ccc([N+](=O)[O-])c(C(F)(F)F)c2)C1=O | 104 to 105 °C
COc1ccc(Cn2cnc3c(-c4ccco4)nc(-c4ccccc4)nc32)cc1 | 140 to 142 °C
C=C(Nc1nc(-c2ccccc2)c(-c2nc3ccccc3c(=O)n2-c2ccccc2Cl)s1)c1ccco1 | > 275 °C
CC(=O)NCC=C1CCc2ccc3nc(CCCCc4ccccc4)oc3c21 | 113 to 115 °C
CCOC(=O)C(C)Oc1ccc(N(C)c2nc3cc(Cl)ccc3o2)cc1 (centres undefined) | 68 to 68.6 °C
COc1cc(C=CC(=O)Nc2ccccc2C(=O)O)ccc1O | 208 °C
CCN(C(=O)N1CCN(c2cc(C)cc(C)c2)CC1)c1cc2ccccc2nc1OC | 84 to 86 °C
CC1COC(c2ccccc2)(c2ccc(Cl)nc2)O1 (centres undefined) | 44 to 51 °C
O=C1CCC(N2Cc3c(OCc4ccc5ncc(CN6CCOCC6)n5c4)cccc3C2=O)C(=O)N1 (centres undefined) | 170 to 172 °C
O=C(O)c1cc(S(=O)(=O)N2CCCCC2)c(Cl)cc1Cl | 200 to 205 °C
COc1cc(N)c2nccc(C)c2c1Oc1ccc(Cl)cc1Cl | 115 to 118 °C
Cc1nc(-c2nn(Cc3ccccc3F)c3ccccc23)oc1CO | 144 °C
CCc1nn(CCO)c(CC)c1Cc1c(F)cccc1F | 70 to 71 °C
O=CNCc1c(Cl)ccc2cc(Cl)cnc12 | 110 °C
CC(NC(CCc1ccccc1)C(=O)O)C(=O)OC(Cc1ccccc1)C(=O)O (centres undefined) | 199 to 200 °C

SMILES | melting point
O=C(O)CCCCCCCCCCCc1ccccc1 | 47 to 48 °C
O=C1NC(=O)C(Cc2ccc(OCCC3OCCO3)cc2)S1 (centres undefined) | 102 to 104 °C
CCOC(=O)c1c(-c2ccccc2)c2c3ccccc3cnn2c1C(C)C | 141 to 142 °C
CCCCCCCCCCCCCCCCCCNC(=O)c1ccc(O)cc1 | 105 °C
CCCCCCCC(=O)c1[nH]c(=O)[nH]c1C | 220 to 221 °C
O=C(CCCCCOc1ccc([N+](=O)[O-])cc1)OCCOCCOC(=O)CCCCCOc1ccc([N+](=O)[O-])cc1 | 60 to 62 °C
CC(C)(C)OC(=O)CNc1nc(NCc2ccc(NC(=O)c3ccc(F)cc3)cc2)c2ccccc2n1 | 96 °C
Cc1c(-c2ccc(O)c(F)c2)sc(C=O)c1-c1ccc(O)c(Cl)c1 | 252 to 254 °C
Cc1c(NC(=O)c2ccc(-c3ccc(F)cc3)c(F)c2)ccc2cc(CN3CCCC3)cnc12 | 176 to 178 °C
CCC(O)(c1ccc(Cl)cc1)c1ccc(OCCCN2CCCCC2)cc1 (centres undefined) | 104 to 105 °C
COC(=O)[C@H]1C[C@H](C(=O)O)Nc2cccc(Cl)c21 (relative stereo) | 159 to 161 °C
CC(C)(c1ccc(OCCO)cc1)c1ccc(OCCO)cc1 | 110 to 111 °C
N#CC1=C(c2ccccc2)Nc2n[nH]cc2C1c1cccc2nsnc12 (centres undefined) | 258 °C
COc1cccc(CCSc2c(O)cc(-c3ccccc3)oc2=O)c1 | 112 to 113 °C
O=C(Cc1ccccc1Nc1c(Cl)cccc1Cl)OCCl | 89 to 91 °C
CSCC(O)CN1C(=O)C(CCC(=O)O)(NC(=O)c2ccc(Cl)c(Cl)c2)c2ccccc21 (centres undefined) | 168 to 170 °C
Cc1ccc(C2CNCc3[nH]c4ccccc4c32)cc1 (centres undefined) | 223 to 224 °C
Cc1cccc(Br)c1C(=O)N[C@@H](Cc1ccc(-c2c(C)n(C)c(=O)n(C)c2=O)cc1)C(=O)O | 240 to 242 °C
O=C(CSc1ncccn1)NC/C=C\COc1cc(CN2CCCCC2)ccn1 | 103 to 106 °C
CCN(CC)C(=S)NC1C=C2c3cccc4c3c(cn4CC)CC2N(C)C1 (centres undefined) | 108 °C
CC=CCNc1cc(C(=O)O)cc(S(N)(=O)=O)c1Nc1ccc(NC(C)=O)cc1 | 230 °C
COC(=O)c1ccc(Cl)cc1NC(=O)CSc1cccc(C)c1 | 75 to 77 °C
CC(C#N)(COc1cc(C#N)ccc1C(F)(F)F)NC(=O)c1ccc(SC(F)(F)F)cc1 (centres undefined) | 126 to 127 °C
N#Cc1c(F)nn(-c2c(Cl)cc(C(F)(F)F)cc2Cl)c1N | 193 to 194 °C
